The target in one experiment is human LTA4 hydrolase (Homo sapiens (Human), UniProt P09960). Kind of experiment: LTA4H Enzyme assay (peptidase, Arg-AMC cleavage). Type of experiment: biochemical. The following applies: LTA4H Enzyme 1 nM, Arg-AMC substrate 50 μM, room temperature 1 h, fluorescence. In outline: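 Peptidase activity of human LTA4H (1 nM final) on Arg-AMC (50 μM final), with compound, 1 h at room temperature. Buffer: 50 mM Tris-HCl pH 7.5, 100 mM KCl, 0.5% BSA.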

Experiment [1] relates to synthesis of LTB4 in human whole blood. The experiment in a line: LTB4 production inhibition assay in human whole blood (HWB). Type of experiment: cell-based. To be noted: heparinized human whole blood, 15 min at 37° C., Calcimycin 20 μM 30 min, plasma LTB4 by HTRF. In outline: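 Heparinized human whole blood preincubated with compound 15 min at 37° C, then stimulated with calcimycin (20 μM final) for 30 min at 37° C. Plasma separated by centrifugation; LTB4 measured by antibody-based homogeneous time-resolved fluorescence.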
(Time-resolved FRET reads energy transfer from a long-lived donor to a nearby acceptor.)

Sequence of human LTA4 hydrolase (P09960 whole entry): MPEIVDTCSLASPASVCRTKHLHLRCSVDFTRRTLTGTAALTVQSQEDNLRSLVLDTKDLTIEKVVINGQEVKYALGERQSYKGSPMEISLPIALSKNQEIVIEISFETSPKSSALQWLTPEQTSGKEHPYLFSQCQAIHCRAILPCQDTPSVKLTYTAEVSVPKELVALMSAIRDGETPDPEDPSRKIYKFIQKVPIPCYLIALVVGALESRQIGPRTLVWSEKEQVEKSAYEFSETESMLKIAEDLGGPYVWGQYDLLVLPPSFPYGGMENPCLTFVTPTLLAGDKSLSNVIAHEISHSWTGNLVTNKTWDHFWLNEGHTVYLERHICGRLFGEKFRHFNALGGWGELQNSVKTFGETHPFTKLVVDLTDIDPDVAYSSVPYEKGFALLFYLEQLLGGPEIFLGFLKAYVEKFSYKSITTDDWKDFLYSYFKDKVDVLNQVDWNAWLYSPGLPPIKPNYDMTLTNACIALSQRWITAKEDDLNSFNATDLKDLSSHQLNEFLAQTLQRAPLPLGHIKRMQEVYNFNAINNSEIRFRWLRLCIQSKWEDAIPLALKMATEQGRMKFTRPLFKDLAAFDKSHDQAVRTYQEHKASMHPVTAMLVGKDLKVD

Usually IC50 stands for the point on the concentration scale where inhibition reaches its midpoint. For the compound `CC(=O)N1CCC(CNCc2coc3cc(Oc4ccc(-c5ccn[nH]5)cn4)ccc23)CC1` [Example 107, 1-{4-[({6-[5-(2H-Pyrazol-3-yl)-pyridin-2-yloxy]-benzofuran-3-ylmethyl}-amino)-methyl]-piperidin-1-yl}-ethanone], the IC50 worked out at 0.0007 µM against human LTA4 hydrolase and 0.21 µM in experiment [1].
The like results for `CC(=O)N1CCC(NCc2coc3cc(Oc4ccc(-c5ccn[nH]5)cn4)ccc23)CC1` [Example 108, 1-[4-({6-[5-(2H-Pyrazol-3-yl)-pyridin-2-yloxy]-benzofuran-3-ylmethyl}-amino)-piperidin-1-yl]-ethanone] were, in that order, 0.00071 µM and 0.18 µM.
Take `O=C1[C@@H](O)CCN1C1CCN(Cc2coc3cc(Oc4ccc(-c5ccn[nH]5)cn4)ccc23)CC1` [Example 109, (S)-3-Hydroxy-1-(1-{6-[5-(2H-pyrazol-3-yl)-pyridin-2-yloxy]-benzofuran-3-ylmethyl}-piperidin-4-yl)-pyrrolidin-2-one]: the IC50 against human LTA4 hydrolase amounted to 0.00036 µM; in experiment [1], 0.14 µM.
On to `CN1CCC2(CCN(Cc3coc4cc(Oc5ccc(-c6ccn[nH]6)cn5)ccc34)CC2)C1=O` [Example 110, 2-Methyl-8-{6-[5-(2H-pyrazol-3-yl)-pyridin-2-yloxy]-benzofuran-3-ylmethyl}-2,8-diaza-spiro[4.5]decan-1-one], for which the IC50 against human LTA4 hydrolase is 0.00022 µM; in experiment [1], 0.13 µM.
In the case of `O=C(CN1CCN(Cc2coc3cc(Oc4ccc(-c5ccn[nH]5)cn4)ccc23)CC1)N1CCCC1` [Example 111, 2-(4-{6-[5-(2H-Pyrazol-3-yl)-pyridin-2-yloxy]-benzofuran-3-ylmethyl}-piperazin-1-yl)-1-pyrrolidin-1-yl-ethanone], the IC50 against human LTA4 hydrolase is 0.00068 µM; in experiment [1], 0.17 µM.
In the same order, the values of `CC(=O)N1CCN(C(=O)c2coc3cc(Oc4ccc(-c5ccn[nH]5)cn4)ccc23)CC1` [Example 112, 1-(4-{6-[5-(2H-Pyrazol-3-yl)-pyridin-2-yloxy]-benzofuran-3-carbonyl}-piperazin-1-yl)-ethanone] are 0.0019 µM and 0.35 µM.
Regarding `CN(C(=O)CO)[C@@H]1CCN(Cc2coc3cc(Oc4ccc(-c5ccn[nH]5)cn4)ccc23)C1` [Example 113, 2-Hydroxy-N-methyl-N-((R)-1-{6-[5-(2H-pyrazol-3-yl)-pyridin-2-yloxy]-benzofuran-3-ylmethyl}-pyrrolidin-3-yl)-acetamide], the 50% inhibitory concentration (IC50) against human LTA4 hydrolase came out at 0.00042 µM; in experiment [1], 0.16 µM.
The like results for `CN(C(=O)CO)[C@H]1CCN(Cc2coc3cc(Oc4ccc(-c5ccn[nH]5)cn4)ccc23)C1` [Example 114, 2-Hydroxy-N-methyl-N-((S)-1-{6-[5-(2H-pyrazol-3-yl)-pyridin-2-yloxy]-benzofuran-3-ylmethyl}-pyrrolidin-3-yl)-acetamide] were, in that order, 0.00056 µM and 0.15 µM.
In the same order, the values of `O=C(CO)N1CCC2(CCN(Cc3coc4cc(Oc5ccc(-c6ccn[nH]6)cn5)ccc34)C2)C1` (stereo not shown) [Example 115, 2-Hydroxy-1-(7-{6-[5-(2H-pyrazol-3-yl)-pyridin-2-yloxy]-benzofuran-3-ylmethyl}-2,7-diaza-spiro[4.4]non-2-yl)-ethanone] are 0.00043 µM and 0.12 µM.
The like results for `N#CC1(C(=O)N2CCN(Cc3ccc4cc(Oc5ccc(-c6ccn[nH]6)cn5)ccc4n3)CC2)CC1` [Example 116, 1-(4-{6-[5-(2H-Pyrazol-3-yl)-pyridin-2-yloxy]-quinolin-2-ylmethyl}-piperazine-1-carbonyl)-cyclopropanecarbonitrile] were, in that order, 0.00087 µM and 0.24 µM.
On to `C[C@H](O)CC(=O)N1CCN(Cc2ccc3cc(Oc4ccc(-c5ccn[nH]5)cn4)ccc3n2)CC1` [Example 117, (S)-3-Hydroxy-1-(4-{6-[5-(2H-pyrazol-3-yl)-pyridin-2-yloxy]-quinolin-2-ylmethyl}-piperazin-1-yl)-butan-1-one], for which the IC50 is 0.0037 µM against human LTA4 hydrolase and 0.67 µM in experiment [1].
The like results for `CO[C@@H](C)C(=O)N1CCN(Cc2ccc3cc(Oc4ccc(-c5ccn[nH]5)cn4)ccc3n2)CC1` [Example 118, (S)-2-Methoxy-1-(4-{6-[5-(2H-pyrazol-3-yl)-pyridin-2-yloxy]-quinolin-2-ylmethyl}-piperazin-1-yl)-propan-1-one] were, in that order, 0.00067 µM and 0.17 µM.
In the same order, the values of `O=C(N1CCN(Cc2ccc3cc(Oc4ccc(-c5ccn[nH]5)cn4)ccc3n2)CC1)C1(O)CCCC1` [Example 119, (1-Hydroxy-cyclopentyl)-(4-{6-[5-(2H-pyrazol-3-yl)-pyridin-2-yloxy]-quinolin-2-ylmethyl}-piperazin-1-yl)-methanone] are 0.0086 µM and 1.2 µM.
In the case of `CC(C)[C@@H](O)C(=O)N1CCN(Cc2ccc3cc(Oc4ccc(-c5ccn[nH]5)cn4)ccc3n2)CC1` [Example 120, (R)-2-Hydroxy-3-methyl-1-(4-{6-[5-(2H-pyrazol-3-yl)-pyridin-2-yloxy]-quinolin-2-ylmethyl}-piperazin-1-yl)-butan-1-one], the figures for the IC50 (against human LTA4 hydrolase; in experiment [1]) were 0.0059 µM and 0.7 µM, respectively.
The like results for `C[C@@H](O)CC(=O)N1CCN(Cc2ccc3cc(Oc4ccc(-c5ccn[nH]5)cn4)ccc3n2)CC1` [Example 121, (R)-3-Hydroxy-1-(4-{6-[5-(2H-pyrazol-3-yl)-pyridin-2-yloxy]-quinolin-2-ylmethyl}-piperazin-1-yl)-butan-1-one] were, in that order, 0.0049 µM and 0.62 µM.
In the same order, the values of `CC(C)(O)CC(=O)N1CCN(Cc2ccc3cc(Oc4ccc(-c5ccn[nH]5)cn4)ccc3n2)CC1` [Example 122, 3-Hydroxy-3-methyl-1-(4-{6-[5-(2H-pyrazol-3-yl)-pyridin-2-yloxy]-quinolin-2-ylmethyl}-piperazin-1-yl)-butan-1-one] are 0.0039 µM and 0.57 µM.
In the same order, the values of `C[C@@H](O)C(=O)N1CCN(Cc2ccc3cc(Oc4ccc(-c5ccn[nH]5)cn4)ccc3n2)CC1` [Example 123, (R)-2-Hydroxy-1-(4-{6-[5-(2H-pyrazol-3-yl)-pyridin-2-yloxy]-quinolin-2-ylmethyl}-piperazin-1-yl)-propan-1-one] are 0.00088 µM and 0.2 µM.
As to `CCOCC(=O)N1CCN(Cc2ccc3cc(Oc4ccc(-c5ccn[nH]5)cn4)ccc3n2)CC1` [Example 124, 2-Ethoxy-1-(4-{6-[5-(2H-pyrazol-3-yl)-pyridin-2-yloxy]-quinolin-2-ylmethyl}-piperazin-1-yl)-ethanone], the values for the IC50 (at human LTA4 hydrolase; in experiment [1]) were 0.0026 µM and 0.42 µM, respectively.
In the case of `CC(C)(O)C(=O)N1CCN(Cc2ccc3cc(Oc4ccc(-c5ccn[nH]5)cn4)ccc3n2)CC1` [Example 125, 2-Hydroxy-2-methyl-1-(4-{6-[5-(2H-pyrazol-3-yl)-pyridin-2-yloxy]-quinolin-2-ylmethyl}-piperazin-1-yl)-propan-1-one], the IC50 against human LTA4 hydrolase was determined as 0.0012 µM; in experiment [1], 0.34 µM.
In the same order, the values of `O=C(N1CCN(Cc2ccc3cc(Oc4ccc(-c5ccn[nH]5)cn4)ccc3n2)CC1)C1(O)CC1` [Example 126, (1-Hydroxy-cyclopropyl)-(4-{6-[5-(2H-pyrazol-3-yl)-pyridin-2-yloxy]-quinolin-2-ylmethyl}-piperazin-1-yl)-methanone] are 0.001 µM and 0.25 µM.

The record behind these values is patent publication US9573957B2 (Boehringer Ingelheim International GmbH, priority 2013, dated 2017).
